Data as given in patent publication US9409905B2, “Antibacterial compounds and methods for use” (PTC THERAPEUTICS, INC., priority 2011, dated 2016).
In brackets after ≈: the same amount, converted by molar mass.

Experiments:
[1] = tested on: Staphylococcus aureus (S. aureus) 29213; test: Antibacterial activity, microbroth dilution MIC (Table 1); format: cell-based; conditions: microbroth dilution, Gram-positive S. aureus 29213, read-out: MIC, 29213
Outline: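 Microbroth dilution was used. MIC, in μg/mL, is the lowest drug concentration preventing macroscopically visible growth under the test conditions.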

[2] = tested on: Escherichia coli (E. coli) BAS849; test: as above; format: cell-based; conditions: microbroth dilution, super sensitive Gram-negative E. coli BAS849, read-out: MIC, BAS849
Outline: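 Values are MICs (μg/mL): the smallest drug amount at which macroscopically visible bacterial growth is absent under assay conditions, from a microdilution method in broth.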

E. coli 25922 = test: as above; format: cell-based, Escherichia coli; conditions: Escherichia coli; microbroth dilution; control Gram-negative E. coli 25922 strain; read-out: MIC, 25922
Outline: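 Broth microdilution; endpoint = no macroscopic growth; value = lowest inhibiting concn, μg/mL.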

E. coli LZ3111 = test: Antibacterial activity, MIC, quinolone resistant strain (Table 2); format: cell-based; conditions: Escherichia coli, LZ3111, read-out: MIC LZ3111
Outline: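 Growth inhibition assessed by serial drug dilution in broth; endpoint was absence of macroscopically visible growth, reported as MIC, μg/mL.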

Row | SMILES | MIC [1] | MIC [2] | MIC (E. coli 25922) | MIC (E. coli LZ3111)
1 | CCc1cc(C(=O)O)c(=O)[nH]c1-c1ccc2c(c1)cc(CN1C[C@H]3CCC[C@@H](NC)[C@H]3C1)n2C [Cpd 148, 5-ethyl-6-(1-methyl-2-(((3aR,4R,7aS)-4-(methylamino)-1H-isoindol-2(3H,3aH,4H,5H,6H,7H,7aH)-yl)methyl)-1H-indol-5-yl)-2-oxo-1,2-dihydropyridine-3-carboxylic acid] | 12.5 to 150 µg/mL (≈ 27 to 324 µM) | 1 to 3.5 µg/mL (≈ 2.16 to 7.57 µM) | 3.5 to 12.5 µg/mL (≈ 7.57 to 27 µM) | 12.5 to 150 µg/mL (≈ 27 to 324 µM)
2 | CCc1cc(C(=O)O)c(=O)[nH]c1-c1ccc2c(c1)cc(CN1C[C@H]3CCC[C@@H](N(C)C)[C@H]3C1)n2C [Cpd 149, 6-(2-(((3aR,4R,7aS)-4-(dimethylamino)-1H-isoindol-2(3H,3aH,4H,5H,6H,7H,7aH)-yl)methyl)-1-methyl-1H-indol-5-yl)-5-ethyl-2-oxo-1,2-dihydropyridine-3-carboxylic acid] | 12.5 to 150 µg/mL (≈ 26.2 to 315 µM) | < 1 µg/mL | 1 to 3.5 µg/mL (≈ 2.1 to 7.34 µM) | 12.5 to 150 µg/mL (≈ 26.2 to 315 µM)
3 | CCc1cc(C(=O)O)c(=O)[nH]c1-c1ccc2c(c1)cc(CN)n2C [Cpd 150, 6-(2-(aminomethyl)-1-methyl-1H-indol-5-yl)-5-ethyl-2-oxo-1,2-dihydropyridine-3-carboxylic acid] | 12.5 to 150 µg/mL (≈ 38.4 to 461 µM) | < 1 µg/mL | 1 to 3.5 µg/mL (≈ 3.07 to 10.8 µM) | 12.5 to 150 µg/mL (≈ 38.4 to 461 µM)
4 | CCc1cc(C(=O)O)c(=O)[nH]c1-c1ccc2c(c1)cc1n2CCC1N1CCCC1 (centres unmarked) [Cpd 151, 5-ethyl-2-oxo-6-(1-(pyrrolidin-1-yl)-2,3-dihydro-1H-pyrrolo[1,2-a]indol-7-yl)-1,2-dihydropyridine-3-carboxylic acid] | 12.5 to 150 µg/mL (≈ 31.9 to 383 µM) | < 1 µg/mL | 1 to 3.5 µg/mL (≈ 2.55 to 8.94 µM) | 12.5 to 150 µg/mL (≈ 31.9 to 383 µM)
5 | CCc1cc(C(=O)O)c(=O)[nH]c1-c1ccc2c(c1)cc1n2CCC1N1CCC(N(C)C)C1 (centres unmarked) [Cpd 153, 6-(1-(3-(dimethylamino)pyrrolidin-1-yl)-2,3-dihydro-1H-pyrrolo[1,2-a]indol-7-yl)-5-ethyl-2-oxo-1,2-dihydropyridine-3-carboxylic acid] | 12.5 to 150 µg/mL (≈ 28.8 to 345 µM) | < 1 µg/mL | 3.5 to 12.5 µg/mL (≈ 8.05 to 28.8 µM) | 12.5 to 150 µg/mL (≈ 28.8 to 345 µM)
6 | CCc1cc(C(=O)O)c(=O)[nH]c1-c1ccc2c(c1)cc(C1CCNC1)n2C.Cl (centres unmarked) [Cpd 156, 5-ethyl-6-(1-methyl-2-(pyrrolidin-3-yl)-1H-indol-5-yl)-2-oxo-1,2-dihydropyridine-3-carboxylic acid hydrochloride] | 12.5 to 150 µg/mL | 3.5 to 12.5 µg/mL | 12.5 to 150 µg/mL | 12.5 to 150 µg/mL
7 | CCc1cc(C(=O)O)c(=O)[nH]c1-c1ccc2c(c1)cc(C(C)N1CCCC1)n2C (centres unmarked) [Cpd 157, 5-ethyl-6-(1-methyl-2-(1-(pyrrolidin-1-yl)ethyl)-1H-indol-5-yl)-2-oxo-1,2-dihydropyridine-3-carboxylic acid] | 12.5 to 150 µg/mL (≈ 31.8 to 381 µM) | < 1 µg/mL | 3.5 to 12.5 µg/mL (≈ 8.89 to 31.8 µM) | 12.5 to 150 µg/mL (≈ 31.8 to 381 µM)
8 | CCc1cc(C(=O)O)c(=O)[nH]c1-c1ccc2c(cc(CN3CCCC3)n2C)c1F [Cpd 158, 5-ethyl-6-(4-fluoro-1-methyl-2-(pyrrolidin-1-ylmethyl)-1H-indol-5-yl)-2-oxo-1,2-dihydropyridine-3-carboxylic acid] | 12.5 to 150 µg/mL (≈ 31.5 to 377 µM) | < 1 µg/mL | 1 to 3.5 µg/mL (≈ 2.52 to 8.81 µM) | 12.5 to 150 µg/mL (≈ 31.5 to 377 µM)
9 | CCc1cc(C(=O)O)c(=O)[nH]c1-c1ccc2c(c1)cc(CCN)n2C.Cl [Cpd 163, 6-(2-(2-aminoethyl)-1-methyl-1H-indol-5-yl)-5-ethyl-2-oxo-1,2-dihydropyridine-3-carboxylic acid hydrochloride] | 12.5 to 150 µg/mL | < 1 µg/mL | 12.5 to 150 µg/mL | 12.5 to 150 µg/mL
10 | CCc1c(-c2ccc3c(c2)cc(CN2C[C@@H](C)N(C)[C@@H](C)C2)n3C)[nH]c(=O)c(C(=O)O)c1O [Cpd 170, 5-ethyl-4-hydroxy-6-(1-methyl-2-(((3S,5R)-3,4,5-trimethylpiperazin-1-yl)methyl)-1H-indol-5-yl)-2-oxo-1,2-dihydropyridine-3-carboxylic acid] | 12.5 to 150 µg/mL (≈ 27.6 to 331 µM) | < 1 µg/mL | 3.5 to 12.5 µg/mL (≈ 7.73 to 27.6 µM) | 12.5 to 150 µg/mL (≈ 27.6 to 331 µM)
11 | CCc1c(-c2ccc3c(c2)cc(CN2C[C@@H](C)O[C@@H](C)C2)n3C)[nH]c(=O)c(C(=O)O)c1O [Cpd 172, 6-(2-(((2S,6R)-2,6-dimethylmorpholino)methyl)-1-methyl-1H-indol-5-yl)-5-ethyl-4-hydroxy-2-oxo-1,2-dihydropyridine-3-carboxylic acid] | 3.5 to 12.5 µg/mL (≈ 7.96 to 28.4 µM) | < 1 µg/mL | 12.5 to 150 µg/mL (≈ 28.4 to 341 µM) | 12.5 to 150 µg/mL (≈ 28.4 to 341 µM)
12 | CCc1c(-c2ccc3c(c2)cc(CN2CCN(C(C)C)CC2)n3C)[nH]c(=O)c(C(=O)O)c1O [Cpd 174, 5-ethyl-4-hydroxy-6-(2-((4-isopropylpiperazin-1-yl)methyl)-1-methyl-1H-indol-5-yl)-2-oxo-1,2-dihydropyridine-3-carboxylic acid] | 3.5 to 12.5 µg/mL (≈ 7.73 to 27.6 µM) | < 1 µg/mL | 1 to 3.5 µg/mL (≈ 2.21 to 7.73 µM) | 12.5 to 150 µg/mL (≈ 27.6 to 331 µM)
13 | CCc1c(-c2ccc3c(c2)cc(CN2CCN(C(C)=O)CC2)n3C)[nH]c(=O)c(C(=O)O)c1O [Cpd 175, 6-(2-((4-acetylpiperazin-1-yl)methyl)-1-methyl-1H-indol-5-yl)-5-ethyl-4-hydroxy-2-oxo-1,2-dihydropyridine-3-carboxylic acid] | 1 to 3.5 µg/mL (≈ 2.21 to 7.73 µM) | < 1 µg/mL | 3.5 to 12.5 µg/mL (≈ 7.73 to 27.6 µM) | 12.5 to 150 µg/mL (≈ 27.6 to 331 µM)
14 | CCc1c(-c2ccc3c(c2)cc(CN2CCC(F)(F)C2)n3C)[nH]c(=O)c(C(=O)O)c1O [Cpd 176, 6-(2-((3,3-difluoropyrrolidin-1-yl)methyl)-1-methyl-1H-indol-5-yl)-5-ethyl-4-hydroxy-2-oxo-1,2-dihydropyridine-3-carboxylic acid] | 1 to 3.5 µg/mL (≈ 2.32 to 8.11 µM) | < 1 µg/mL | 12.5 to 150 µg/mL (≈ 29 to 348 µM) | 12.5 to 150 µg/mL (≈ 29 to 348 µM)
15 | CCc1c(-c2ccc3c(c2)cc(CN2CCC(NC(C)=O)C2)n3C)[nH]c(=O)c(C(=O)O)c1O (centres unmarked) [Cpd 183, 6-(2-((3-acetamidopyrrolidin-1-yl)methyl)-1-methyl-1H-indol-5-yl)-5-ethyl-4-hydroxy-2-oxo-1,2-dihydropyridine-3-carboxylic acid] | 12.5 to 150 µg/mL (≈ 27.6 to 331 µM) | < 1 µg/mL | 1 to 3.5 µg/mL (≈ 2.21 to 7.73 µM) | 12.5 to 150 µg/mL (≈ 27.6 to 331 µM)
16 | CCc1c(-c2ccc3c(c2)cc(CN2CCC[C@H]2C(=O)OC)n3C)[nH]c(=O)c(C(=O)O)c1O [Cpd 190, (S)-5-ethyl-4-hydroxy-6-(2-((2-(methoxycarbonyl)pyrrolidin-1-yl)methyl)-1-methyl-1H-indol-5-yl)-2-oxo-1,2-dihydropyridine-3-carboxylic acid] | 3.5 to 12.5 µg/mL (≈ 7.72 to 27.6 µM) | < 1 µg/mL | 12.5 to 150 µg/mL (≈ 27.6 to 331 µM) | 12.5 to 150 µg/mL (≈ 27.6 to 331 µM)
17 | CCc1c(-c2ccc3c(c2)cc(CN2CCC(C(=O)N(C)C)C2)n3C)[nH]c(=O)c(C(=O)O)c1O (centres unmarked) [Cpd 191, 6-(2-((3-(dimethylcarbamoyl)pyrrolidin-1-yl)methyl)-1-methyl-1H-indol-5-yl)-5-ethyl-4-hydroxy-2-oxo-1,2-dihydropyridine-3-carboxylic acid] | 3.5 to 12.5 µg/mL (≈ 7.5 to 26.8 µM) | < 1 µg/mL | 1 to 3.5 µg/mL (≈ 2.14 to 7.5 µM) | 12.5 to 150 µg/mL (≈ 26.8 to 322 µM)
18 | CCc1c(-c2ccc3c(c2)cc(CN2CC(F)(F)C2)n3C)[nH]c(=O)c(C(=O)O)c1O [Cpd 195, 6-(2-((3,3-difluoroazetidin-1-yl)methyl)-1-methyl-1H-indol-5-yl)-5-ethyl-4-hydroxy-2-oxo-1,2-dihydropyridine-3-carboxylic acid] | 1 to 3.5 µg/mL (≈ 2.4 to 8.39 µM) | < 1 µg/mL | 3.5 to 12.5 µg/mL (≈ 8.39 to 29.9 µM) | 12.5 to 150 µg/mL (≈ 29.9 to 359 µM)
19 | CCc1c(-c2ccc3c(c2)cc(CN2C[C@@H]4[C@H](C2)[C@H]4N(Cc2ccccc2)Cc2ccccc2)n3C)[nH]c(=O)c(C(=O)O)c1O [Cpd 196, 6-(2-(((1R,5S,6s)-6-(dibenzylamino)-3-azabicyclo[3.1.0]hexan-3-yl)methyl)-1-methyl-1H-indol-5-yl)-5-ethyl-4-hydroxy-2-oxo-1,2-dihydropyridine-3-carboxylic acid] | 12.5 to 150 µg/mL (≈ 20.7 to 249 µM) | 3.5 to 12.5 µg/mL (≈ 5.81 to 20.7 µM) | 12.5 to 150 µg/mL (≈ 20.7 to 249 µM) | 12.5 to 150 µg/mL (≈ 20.7 to 249 µM)
20 | CCc1c(-c2ccc3c(c2)cc(CN2C[C@@H]4[C@H](C2)[C@H]4N(C)C)n3C)[nH]c(=O)c(C(=O)O)c1O [Cpd 197, 6-(2-(((1R,5S,6s)-6-(dimethylamino)-3-azabicyclo[3.1.0]hexan-3-yl)methyl)-1-methyl-1H-indol-5-yl)-5-ethyl-4-hydroxy-2-oxo-1,2-dihydropyridine-3-carboxylic acid] | 3.5 to 12.5 µg/mL (≈ 7.77 to 27.7 µM) | < 1 µg/mL | 1 to 3.5 µg/mL (≈ 2.22 to 7.77 µM) | 12.5 to 150 µg/mL (≈ 27.7 to 333 µM)
